In paper PMC10056643, “New Bioactive Peptides from the Mediterranean Seagrass Posidonia oceanica (L.) Delile and Their Impact on Antimicrobial Activity and Apoptosis of Human Cancer Cells” (International Journal of Molecular Sciences, 2023):
Like-named read-outs stand apart in the source and are kept apart here. Where no end group is shown, it is not given here.

Tests used:
HepG2 cells = assay type: cell-based, human; settings: for Activity on HepG2 cells (in words): HepG2, discussion statement; for IC50 (cell viability): 24 h
Protocol: HepG2 human hepatic cancer cells (taken from laboratory stocks) were routinely grown in high glucose–DMEM medium with the addition of 10% fetal calf serum (Life Technologies, Carlsbad, CA, USA) and antibiotics (100 U/mL penicillin and 100 μg/mL streptomycin; Life Technologies), at 37 °C in a 5% CO2 atmosphere.
For IC50 determination, cells undergoing exponential growth were seeded at a concentration of 5500/well in 96-well plates, allowed to adhere overnight, and then grown in control conditions or exposed to different concentrations of natural and synthetic peptides for 24 h. The number of viable cells was determined through the trypan blue exclusion test. The cell viability ratio in each experimental condition was determined as the ratio between unstained treated cells and controls, and the half maximal inhibitory concentrations (IC50) for peptides #7, #3d, and #7d were evaluated using the CompuSyn software.

E. coli ATCC 25922 = assay type: cell-based, Escherichia coli
Source text: (§1) Four bacterial strains and one fungal strain were employed in this study: S. aureus ATCC 25923, P. aeruginosa ATCC 15442, E. coli ATCC 25922, E. faecalis ATCC 29212, and C. albicans ATCC 10231. The media used for microbiological assays were Tryptic Soy Broth (TSB, Sigma-Aldrich, Merck-Life Sciences S.r.l., Milan, Italy), Tryptic Soy Agar (TSA), Mueller Hinton II (Sigma-Aldrich, Merck-Life Sciences S.r.l., Milan, Italy), and Sabouraud medium for the yeast strain.
(§2) Polypeptide-enriched extracts derived from green leaves and rhizomes of P. oceanica were lyophilized and resuspended in ultrapure water in order to obtain protein concentrations of 30 μg/mL and 26 μg/mL, respectively. The MIC values of the extracts were assessed through a previously described micro-method based on serial dilution (1:2) of the extracts, using Mueller Hinton II (MH II) and Sabouraud (for C. albicans) media in 96-well microplates and starting from 50% v/v to 1.5% v/v for a final volume equal to 100 μL. A microbial suspension of 10 μL (5 × 10^6 CFU/mL) derived from a bacterial culture grown at 37 °C for 24 h on Tryptic Soy Agar (TSA) in 5 mL of NaCl 0.9%, whose turbidity was similar to the 0.5 McFarland standard, was added to a 96-well plate followed by incubation at 37 °C for 24 h. […] In addition, a positive growth control (broth with bacterial inoculum to compare the growth of the cells with samples) and a sample control (extract solution without bacterial inoculum to verify the absorbance of the samples at various tested concentrations) were also included.
(§3) The same procedure and media were also used to evaluate the antimicrobial activity of synthetic peptides #2, #3, #5, and #7, as well as of their derivatives. In particular, the synthetic peptides and their derivatives were dissolved in ultrapure water with the goal of achieving a stock solution of 5 mg/mL. Work solutions of 250 μg/mL of each synthetic peptides and derivatives were prepared in MH II and Sabouraud, being tested in 96-well microplates after serial dilution (1:2). Each assay was performed in triplicate.

C. albicans ATCC 10231 = assay type: cell-based, Candida albicans
Source text: as §1, §2, §3

P. aeruginosa ATCC 15442 [1] = assay type: cell-based, Pseudomonas aeruginosa
Source text: as §1, §2, §3

S. aureus ATCC 25923 = assay type: cell-based, Staphylococcus aureus
Source text: as §1, §2, §3

E. faecalis ATCC 29212 = assay type: cell-based, Enterococcus faecalis
Source text: as §1, §2, §3

P. aeruginosa ATCC 15442 [2] = assay type: cell-based, Pseudomonas aeruginosa; settings: crystal violet
Protocol: Sub-MIC concentrations of natural extracts and synthetic peptides were tested to evaluate their interference with the growth as a sessile community of S. aureus ATCC 25923, P. aeruginosa ATCC 15442 and C. albicans ATCC 10231, as previously reported. Bacterial strains or fungal strains were incubated in test tubes containing TSB or Sabouraud (5 mL) and 2% v/v glucose at 37 °C for 24 h. Then, a 2.5 μL microbial suspension was added to each well, containing 200 μL of TSB or Sabouraud broth with 2% w/v glucose.. Aliquots of sub-MIC concentrations of natural extracts of P. oceanica or of chemically synthesized peptides were directly added to the wells, and the plates were incubated at 37 °C for 24 h. After biofilm formation, the wells were washed twice with sterile NaCl 0.9% and stained with 200 μL of 0.1% v/v crystal violet solution for 30 min at 37 °C [70]. Excess solution was discharged, and the plates were washed twice using tap water. Lastly, each stained well was processed by adding 200 μL of ethanol to solubilize the dye. The OD was read at a wavelength of 600 nm using a microplate reader (Glomax®-Multi Detection System, Promega s.r.l., Milan, Italy). […] The percentage of biofilm inhibition formation was determined through the following formula: % Inhibition = [(OD growth − OD sample)/OD growth control] × 100. […]

[3] = chemically synthesized peptide, maximum tested concentration 250 μg/mL, Mueller Hinton II, triplicate

In the case of “IVASVGSA [Peptide #5, natural peptide IVASVGSA from rhizome extract, chemically synthesized]”, the “Activity on HepG2 cells (in words)” value (HepG2 cells) is reported as “inability of peptide #5 to exert any biological role”.

WVVRLNAPGKK [Peptide #3d] was tested, and the MIC (E. coli ATCC 25922; ATCC 25922, 24 h) was > 250 µg/mL, the MIC (C. albicans ATCC 10231; ATCC 10231, 24 h) was > 250 µg/mL and the “IC50 (cell viability)” value (HepG2 cells) was 410 ng/mL. The MIC (P. aeruginosa ATCC 15442 [1]; ATCC 15442, 24 h) was > 250 µg/mL, the MIC (S. aureus ATCC 25923; ATCC 25923, 24 h) was > 250 µg/mL and the MIC (E. faecalis ATCC 29212; ATCC 29212, 24 h) was > 250 µg/mL.

In the case of GEFALCKATK [Peptide #7d], the MIC (E. coli ATCC 25922; ATCC 25922, 24 h) is reported as > 250 µg/mL, the MIC (C. albicans ATCC 10231; ATCC 10231, 24 h) is reported as > 250 µg/mL and the “IC50 (cell viability)” value (HepG2 cells) is reported as 108 ng/mL. The MIC (P. aeruginosa ATCC 15442 [1]; ATCC 15442, 24 h) was > 250 µg/mL, the MIC (S. aureus ATCC 25923; ATCC 25923, 24 h) was > 250 µg/mL and the MIC (E. faecalis ATCC 29212; ATCC 29212, 24 h) was > 250 µg/mL.

In the case of RKTFWGVL [Peptide #2d], the MIC (E. coli ATCC 25922; ATCC 25922, 24 h) is reported as > 250 µg/mL, the MIC (C. albicans ATCC 10231; ATCC 10231, 24 h) is reported as > 250 µg/mL and the MIC (P. aeruginosa ATCC 15442 [1]; ATCC 15442, 24 h) is reported as > 250 µg/mL. For the same sequence, the MIC (S. aureus ATCC 25923; ATCC 25923, 24 h) was > 250 µg/mL and the MIC (E. faecalis ATCC 29212; ATCC 29212, 24 h) was > 250 µg/mL.

With “EETFHGVL [Peptide #2, natural peptide EETFHGVL from green leaves extract, chemically synthesized]” the “Activity on HepG2 cells (in words)” value (HepG2 cells) was “lack of activity”.

With GEFALCSAKT [Peptide #7] the “IC50 (cell viability)” value (HepG2 cells) was 329 ng/mL.

With IVAKVGSA [5d] the MIC (E. coli ATCC 25922; [3]) was > 250 µg/mL, the MIC (C. albicans ATCC 10231; chemically synthesized peptide, maximum tested concentration 250 μg/mL, Sabouraud, triplicate) was > 250 µg/mL and the MIC (P. aeruginosa ATCC 15442 [1]; [3]) was > 250 µg/mL. The MIC (S. aureus ATCC 25923; [3]) was > 250 µg/mL, the MIC (E. faecalis ATCC 29212; [3]) was > 250 µg/mL and the “Percentage of inhibition of biofilm formation” value (P. aeruginosa ATCC 15442 [2]; maximum tested concentration 200 μg/mL) was 57.2%. The BIC50 (P. aeruginosa ATCC 15442 [2]; peptide, AAT Bioquest IC50 calculator) was 70.7 µg/mL.
